Data from patent US20080262228A1, “Metabolites of 5-fluoro-8- quinoline and methods of preparation and uses thereof” (Wyeth, priority 2006, published 2008).

Experiments:
[1] = In vivo metabolism of [14C]COMPOUND I in Sprague-Dawley rats, single oral 5 mg/kg dose; set-up: species or system rat; conditions: for Chromatographic Distribution of Radioactivity in Pooled Plasma Samples: 5 mg/kg oral [14C]COMPOUND I
Description: Dose preparation, animal dosing, and specimen collection were performed at Wyeth Research, Collegeville, Pa. The vehicle contained 2% (w/v) polysorbate 80, NF and 0.5% (w/v) methylcellulose (4000 cps) in water. [^14C]COMPOUND I trisuccinate salt (36.6 mg) and non-labeled COMPOUND I trisuccinate salt (26.7 mg) were dissolved in 1 mL of ethanol and suspended in 35 mL of the vehicle with stirring. The target [^14C]COMPOUND I concentration was approximately 1 mg/mL as free base and 70 μCi/mL with a target specific activity of 70 μCi/mg. Three pre- and post-dose aliquots (100 μL) were taken for the determination of radiochemical purity, drug and radioactivity concentrations and specific activity (see below).
Male rats weighing from 323 to 354 g and female rats weighing from 270 to 317 g at the time of dosing were purchased from Charles River Laboratories (Wilmington, Mass.). Non-fasted rats were given a single 5 mg/kg (˜350 μCi/kg) dose of [^14C]COMPOUND I at a volume of 5.0 mL/kg via intragastric gavage. Three rats were dosed for each time point. Animals were provided Purina rat chow and water ad libitum, and were kept individually in metabolism cages.
Blood samples were collected at 1, 3, 6 and 24 hr from male rats and at 1 and 3 hr from female rats after dose administration by cardiac puncture into tubes containing EDTA as the anticoagulant and placing them on ice. Triplicate aliquots (50 μL) of whole blood were removed and plasma was immediately obtained from the remaining blood by centrifugation at 4° C. Whole brain samples were collected after saline perfusion at 1, 3, 6 and 24 hr post-dose from male rats and at 1 and 3 hr post-dose from female rats. Urine samples were collected on dry ice from male rats at intervals of 0-6 and 6-24 hr post-dose. Feces were collected from male rats at 0-24 hr post-dose at room temperature. The biological specimens and aliquots of the dose suspension were stored at approximately −70° C. until analysis.
Triplicate aliquots of diluted dose (20 μL), dose fractions (10 μL), and plasma (50 μL) and urine (100 μL) from individual rats were analyzed for radioactivity concentrations. Radioactivity determinations were made with a Tri-Carb Model 3100 TR liquid scintillation counter (LSC) (Perkin Elmer) using 5 mL of Ultima Gold as the scintillation fluid.
Brain and fecal samples from individual rats were weighed and homogenized in water at a volume-to-weight ratio of about 3:1 and 5:1, respectively, with a Polytron PT homogenizer at ice-cold temperature. Duplicate aliquots of blood (50 μL), brain homogenates (0.2 g) and fecal homogenates (0.2 g) were placed on Combusto-cones with Combusto-pads and allowed to dry overnight. Samples were combusted with a model 307 Tri-Carb Sample Oxidizer, equipped with an Oximate-80 Robotic Automatic Sampler (Perkin Elmer). The liberated ^14CO2 was trapped with Carbo-Sorb E carbon dioxide absorber, mixed with PermaFluor® E^+ liquid scintillation cocktail, and counted in a Tri-Carb Model 3100 TR/LL liquid scintillation counter (Perkin Elmer).
Plasma samples were pooled by equal volumes from three animals at each time point (1, 3, 6 and 24 hr for males; 1 and 3 hr for females). Aliquots of 2 mL of pooled plasma were mixed with 2 mL of acetonitrile, placed on ice for about 10 min, and then centrifuged at 4° C. The supernatant was transferred to a clean tube. The protein pellets were extracted two more times with 4 mL of acetonitrile. The supernatants from precipitation and extraction of each sample were pooled, mixed, and evaporated at 22° C. under nitrogen in a TurboVap LV evaporator (Caliper Life Sciences, Hopkinton, Mass.) to about 1.0 mL. The concentrated extract was centrifuged, the supernatant volume measured and the extraction efficiency was determined by analyzing duplicate 10 μL aliquots for radioactivity concentrations.

[2] = Metabolite profiling in liver microsomes and S9; format: in vitro ADME, rat, dog, monkey, human; conditions: liver microsomes and S9, 10 μM COMPOUND I, 30 min; species letters not defined
Description: Microsomal incubations for metabolite profiling were similar to those described above for intrinsic clearance determination (see Table 1). Aliquots of COMPOUND I (10 μL), dissolved in DMSO:methanol (1:9), were added to a 96-well plate containing phosphate buffer, and MgCl2 and the liver microsomes at 37° C. using the same automation apparatus as for the stability study described hereinabove. The reactions were initiated by the addition of the UDPGA and NADPH generating system. The final incubation volume for all samples was 1 mL and the length of incubation was 30 min. […] Three 250 μL aliquots were transferred to a 96-well plate containing 900 μL acetonitrile to precipitate the protein. […] The samples were then reconstituted in 150 μL of 20% methanol in water. The three aliquots for each sample were pooled and analyzed by LC/MS.
S9 incubation buffer and cofactors were chosen to allow N-acetylation and carbamoyl glucuronidation in addition to oxidative and glucuronidation pathways possible in liver microsomes. Incubations of sulfamethazine and SCA-136 with liver S9 were used as positive controls for N-acetylation and carbamoyl glucuronidation, respectively. Following a 30 min. incubation, 750 μL from each sample were added to 900 μL acetonitrile. Following centrifugation and evaporation of the supernatant, the samples were reconstituted in 450 μL of 20% methanol in water for analysis by HPLC/UV and LC/MS (see below).
The HPLC system used for mass spectrometric analysis was an Agilent 1100 HPLC (Agilent Technologies, Palo Alto, Calif.) equipped with a binary pump and a diode array UV detector. The UV detector was set to monitor 190-400 nm. Separations were accomplished on a Luna C18 column (150×2.1 mm, 5 μm) (Phenomenex Incorporated, Torrance, Calif.).
The mass spectrometer used for metabolite characterization was a Finnigan LCQ Deca ion trap mass spectrometer (Thermo Electron Corp.). […] Full scan and data dependent MS2 and MS3 mass spectra were recorded. Finnigan Xcalibur software (version 1.3) was used for control of equipment and recording of data from UV and LC/MS analyses.
Chromatographic profiles of COMPOUND I (10 μM) metabolites in incubations with liver microsomes in the presence of NADPH are presented in FIG. 1. Chromatographic profiles of COMPOUND I (10 μM) metabolites in incubations with liver microsomes in the presence of NADPH and UDPGA are presented in FIG. 2. Chromatographic profiles of COMPOUND I (10 μM) metabolites in incubations with liver S9 in the presence of NADPH, UDPGA and acetyl coenzyme A (CoA) are presented in FIG. 3. In incubations containing NADPH, UDPGA and acetyl CoA, fourteen Phase I metabolites (M1, M6, M8, M12, M13, M14, M15, M16, M17, M18, M20, M21, M22 and M23) and six Phase II metabolites (M2, M3, M5, M7, M9 and M10) were observed. In incubations without cofactors, no metabolites were observed.
LC/MS analysis was conducted on extracts of mouse, rat, monkey and human liver microsomes and S9. The mass spectral data for the characterized COMPOUND I metabolites are discussed below.

[3] = Metabolite characterization in cryopreserved hepatocytes; conditions: hepatocyte incubations, 20 μM; R, rat; D, dog; H, human; Media = decomposition product observed in media control
Description: Pooled male rat, dog, and mixed male and female human cryopreserved hepatocytes were used in this study. The cryopreserved hepatocytes (two vials from each species; three to five million viable cells per vial) were thawed in a 37° C. water bath with gentle shaking until the ice was almost melted. The suspensions from the two individual vials of the same species were immediately transferred to a 50 mL centrifuge tube containing pre-warmed thawing media at 37° C. with gentle handshaking to prevent the cells from settling. The cell suspension was centrifuged at 50 g for 5 min at 4° C. Supernatants were discarded and the pellets were resuspended in pre-warmed incubation media (8 mL) at 37° C. […] [^14C]COMPOUND I (20 μM) was incubated in a 12-well plate containing hepatocyte suspensions at 1.0 mL per well in duplicate (≧1 million viable cells/well) at 37° C. for 1 or 4 hr in the presence of 5% CO2:95% O2. Control incubations without hepatocytes were also run under the same conditions. Positive controls containing [^14C]7-ethoxycoumarin (100 μM) were also incubated under the same conditions, but only for 1 hr. At the end of the incubations, reactions were stopped by adding acetonitrile with 2% acetic acid (1 mL), mixed for 10 min, followed by centrifugation at 4000 rpm for 10 min at 4° C. Aliquots (50 μL) of supernatants were analyzed by HPLC with UV and radioactivity flow detection for metabolite profiling, and by LC/MS for metabolite identification as described in below. To determine extraction recovery, aliquots (20 μL) of supernatants were analyzed for radioactivity content utilizing a Packard Tri-Carb Model 3100 TR liquid scintillation counter and 5 mL of Ultima Gold.
The HPLC system used for mass spectrometric analysis was a Waters Alliance model 2695 HPLC system (Waters Corp). It was equipped with a built-in autosampler and a model 996 diode array UV detector. The UV detector was set to monitor 210-400 nm. The HPLC conditions were the same as those described hereinabove with the following exceptions. […]

| SMILES | Chromatographic Distribution of Radioactivity in Pooled Plasma Samples ([1]; female rats, 1 hr) | Chromatographic Distribution of Radioactivity in Pooled Plasma Samples ([1]; female rats, 3 hr) | percent of total plasma radioactivity ([1]; male and female rats, range over time points, 5 mg/kg oral) | Chromatographic Distribution of Radioactivity in Pooled Plasma Samples ([1]; male rats, 1 hr) | Chromatographic Distribution of Radioactivity in Pooled Plasma Samples ([1]; male rats, 3 hr) | Chromatographic Distribution of Radioactivity in Pooled Plasma Samples ([1]; male rats, 6 hr) | Species (in which the metabolite was characterized) [2] | Source [3] |
| --- | --- | --- | --- | --- | --- | --- | --- | --- |
| COc1cc(N2CCN(C3CCN(c4ccc(OC5OC(C(=O)O)C(O)C(O)C5O)c5cccnc45)CC3)CC2)c2ncccc2c1 (stereo not drawn) [Metabolite M5, Hydroxy desfluoro COMPOUND I glucuonide] | 9.6% | 16.2% | 9.6-17.1% | 15.2% | 17.1% | 16.5% | R, D, M, H | – |
| COc1cc(N2CCN(C3CCN(c4ccc(O)c5cccnc45)CC3)CC2)c2ncccc2c1 [Metabolite M18, Hydroxy desfluoro COMPOUND I] | – | – | – | – | – | – | R, D, M, H | D (trace), H |
